Seven molecules from US11696938B2, “Human cancer cell metastasis inhibitory agent and human cancer cell determination agent” (priority 2017, dated 2023) can be followed below.

Test [1] deals with OV2944 cells. Kind of test: Analysis of survival after cell transfer (Kaplan Meier). The following applies: intraperitoneal, 3 nmoles/two days. The class given is in vivo, mouse. The procedure: The purified OV2944 cells expressing the fluorescent protein tdTomato were transferred into the abdominal cavity of mice (B6C3F1 strain, 9 weeks old, female, CLEA Japan, Inc.) (1×10^5 cells/mouse). […] On Day 21, the abdominal organs were removed, and OV2944 cells expressing the fluorescent protein tdTomato in the liver were observed using a fluorescence stereomicroscope OV110 (Olympus Corporation).
Intraperitoneal injection was carried out in the same manner as in Experimental Example 13-1 and Experimental Example 13-2, and survival analysis was carried out thereafter to provide Experimental Example 14-1 and Experimental Example 14-2. For the survival curve according to the Kaplan Meier method, a significant difference was analyzed by log-rank test.

In test [2] the test system is OV2944 cells. Kind of test: Cell binding experiment (fluorescently labeled protein/peptide, confocal microscope). On the set-up: species or system mouse. The following applies: for cell-binding ability (fluorescence intensity): 5 μM rhodamine-labeled partial peptides, ranking. The procedure:
The OV2944-HM-1 cell line (which may be referred to as “OV2944 cells” or, simply, “cells”), which is a commonly used cell line, was used. OV2944 cells were obtained from RIKEN BioResource Center (Cell No. RCB1483), and cultured in DMEM medium (+10% FBS) according to a conventional method.
Cultured cells were fixed on a glass plate (4% paraformaldehyde/phosphate buffer, room temperature, 10 minutes), and treated with sheep serum. Thereafter, mouse dicalcin (5 μM) fluorescently labeled with tetramethylrhodamine (TMR) was reacted with the cells in the presence of 1 mM CaCl2 (4° C., overnight). After washing with TBS buffer, analysis was carried out using a confocal microscope (Carl Zeiss). Further, cell nuclei were stained with DAPI.
An experiment was carried out in the same manner as in Experimental Example 1-1 except that the reaction was carried out in the presence of 1 mM EGTA (which may be referred to as “in the absence of calcium”).
An experiment was carried out in the same manner as in Experimental Example 1-1 except that immunostaining was carried out using an anti-mouse dicalcin antibody (Catalog No. MAB5167, R&D Systems) as a primary antibody, and an Alexa Fluor (registered trademark) 594-labeled anti-rat IgG antibody (Catalog No. A11007, Invitrogen) as a secondary antibody.
An experiment was carried out in the same manner as in Experimental Example 1-1 except that each of partial peptides p1 to p7 (5 μM) fluorescently labeled with rhodamine was used.

Test [3] has as its system OV2944 cells. Kind of test: Cell invasion assay (Matrigel Invasion Chamber). Format: cell-based, mouse. The note with it: for cell invasion, ranking of suppression: 8 μM each, versus 10 μM BSA. The procedure: (§1) Cell invasion was analyzed using a BD BioCoat (registered trademark) Matrigel Invasion Chamber (Becton, Dickinson and Company). First, a certain amount of cells (about 1×10^5 cells/well) were treated with 2 μM, 8 μM, or 20 μM mouse dicalcin at room temperature for 20 minutes.
(§2) The treated cells were washed by centrifugation treatment, and then plated in the upper chamber of a transwell preliminarily coated with Matrigel, followed by performing culture using DMEM (+10% FBS) as a medium.
About 16 hours later, the invading cells that had migrated into the lower chamber were fixed using 4% paraformaldehyde/phosphate buffer at room temperature for 10 minutes, and then stained with crystal violet, followed by excision of the membrane, embedding on a slide, and counting of the cell number.

In test [4] the test system is OV2944 cells. The test can be described thus: Cell adhesion assay (Matrigel). The class given is cell-based, mouse. The note with it: 8 or 20 μM. The procedure: First, a certain amount of cells (about 1×10^5 cells/well) were treated with 8 μM or 20 μM mouse dicalcin at room temperature for 20 minutes. After coating a 24-well plate with, and allowing gelation of, BD Matrigel (registered trademark) (Becton, Dickinson and Company), the pretreated cells were washed and plated therein.
About 1 hour later, nonadherent cells were aspirated. After washing, adherent cells were fixed using 4% paraformaldehyde/phosphate buffer at room temperature for 10 minutes, and then stained with crystal violet, followed by counting of the cell number. The adhesion index was calculated as {(number of stained cells)/(number of plated cells)}×100(%). Normalization was carried out by the later-mentioned result of Experimental Example 3-2, which was taken as 100(%).
An experiment was carried out in the same manner as in Experimental Example 3-1 except that mouse dicalcin was not added.
An experiment was carried out in the same manner as in Experimental Example 3-1 except that 10 μM BSA was used instead of mouse dicalcin.

In test [5] the test system is OV2944 cells. Kind of test: Cell survival assay (crystal violet). The class given is cell-based, mouse. The following applies: 20 μM; versus 10 μM BSA. The procedure: (§3) First, a certain amount of cells (about 1×10^5 cells/well) were treated with 20 μM mouse dicalcin at room temperature for 20 minutes. The cells were then washed and aliquoted into a 96-well plate, followed by performing culture. One hour later, after washing with PBS buffer, the cells were fixed using 4% paraformaldehyde/phosphate buffer at room temperature for 10 minutes. The cells were then stained with crystal violet and solubilized, followed by measuring the absorbance (measurement wavelength, 550 nm) in order to analyze the cell survival rate. The cell survival rate was calculated as {(number of stained cells)/(number of plated cells)}×100(%). Normalization was carried out by the later-mentioned result of Experimental Example 4-2, which was taken as 100(%).
An experiment was carried out in the same manner as in Experimental Example 4-1 except that 10 μM BSA was used instead of mouse dicalcin.

For test [6], the system named is OVCAR cells. The test can be described thus: Cell invasion assay. The class given is cell-based, human. How it is done: as §1, §2
About 16 hours later, the invading cells that had migrated into the lower chamber were fixed using 4% paraformaldehyde/phosphate buffer at room temperature for 10 minutes, and then stained with crystal violet, followed by excision of the membrane, embedding on a slide, and counting of the cell number. The invasion index was calculated as {(number of stained cells)/(number of plated cells)}×100(%), and normalized by the later-mentioned result of Experimental Example 2-2, which was taken as 100(%).
The OVCAR-3 cell line (which may be referred to as “OVCAR cells” or, simply, “cells”), which is a commonly used cell line, was used. OVCAR cells were obtained from RIKEN BioResource Center (Cell No. RCB2135), and cultured in DMEM medium (+10% FBS) according to a conventional method. This line is a human ovarian cancer (adenocarcinoma)-derived cell line.
An analysis was carried out in the same manner as in Experimental Example 2-1 except that OVCAR cells were used as the cells, and that 8 μM or 20 μM human dicalcin was used instead of mouse dicalcin.
An analysis was carried out in the same manner as in Experimental Example 9-1 except that 20 μM BSA was used instead of human dicalcin.
An analysis was carried out in the same manner as in Experimental Example 2-1 except that OVCAR cells were used as the cells, and that 2 μM or 10 μM hDC-p6 was used as a partial peptide. Statistical analysis was carried out by unpaired Student t-test in order to analyze a significant difference.

Test [7] relates to OVCAR cells. Kind of test: Cell survival assay. The note with it: 20 μM; versus 10 μM BSA. The class given is cell-based, human. How it is done: as §3
An experiment was carried out in the same manner as in Experimental Example 4-1 except that OVCAR cells were used as the cells, and that 20 μM human dicalcin was used instead of mouse dicalcin.
An experiment was carried out in the same manner as in Experimental Example 10-1 except that 10 μM BSA was used instead of human dicalcin.

With “p1: partial peptide of mouse dicalcin, SEQ ID NO: 12, PTETERCIE; used as control peptide (listed as Mus musculus)”, the “average number of days of survival” value in the test on OV2944 cells [1] was 32 days.
Regarding “p2: partial peptide of mouse dicalcin, SEQ ID NO: 13, SLIAVFQKY (listed as Mus musculus)”, in the test on OV2944 cells [2], the “cell-binding ability (fluorescence intensity)” value (shortened to “cell-binding ability”) is reported as “second highest cell-binding ability”. Also, the “cell invasion, ranking of suppression” value in the test on OV2944 cells [3] is “followed by p2, p′7, and p5 in this order”.
On to “p4: partial peptide of mouse dicalcin, SEQ ID NO: 15, MNTELAAFTKNQKDPGVLDR (listed as Mus musculus)”, for which, in the test with OV2944 cells [2], the “cell-binding ability” value is “third highest cell-binding ability”.
In the case of “p5: partial peptide of mouse dicalcin, SEQ ID NO: 16, MMKKLDLNCDG (listed as Mus musculus)”, the “cell-binding ability” value in the test on OV2944 cells [2] was “second highest cell-binding ability”. Further, in the test with OV2944 cells [3], the “cell invasion, ranking of suppression” value was “followed by p2, p′7, and p5 in this order”.
Turning to “p7: partial peptide of mouse dicalcin, SEQ ID NO: 18, GGLAIACHDSFIQTSQKRI (listed as Mus musculus)”, in the test on OV2944 cells [2], the “cell-binding ability” value is “second highest cell-binding ability”. In the test with OV2944 cells [3], the “cell invasion, ranking of suppression” value is “followed by p2, p′7, and p5 in this order”.

B1: mouse dicalcin: recombinant full-length mouse dicalcin (S100A11), SEQ ID NO:11, expressed in E. coli (protein, listed as Mus musculus)
chain: PTETERCIESLIAVFQKYSGKDGNNTQLSKTEFLSFMNTELAAFTKNQKDPGVLDRMMKKLDLNCDGQLDFQEFLNLIGGLAIACHDSFIQTSQKRI
Take B1: the “binding to the cells (fluorescence)” value in the test on OV2944 cells [2] (5 μM TMR-labeled, 1 mM CaCl2 versus 1 mM EGTA) is “larger amount of mouse dicalcin binds to the cells in the presence of calcium”. In addition, the “cell invasion (invasion index)” value in the test on OV2944 cells [3] (2, 8 or 20 μM, normalized to 10 μM BSA) is recorded as “suppresses the cell invasion in a concentration-dependent manner”. Also, the “cell adhesion (adhesion index)” value in the test with OV2944 cells [4] is reported as “suppresses the cell adhesion in a concentration-dependent manner”. Besides, the cell survival rate result in the test with OV2944 cells [5] is recorded as “does not affect the survival of the cells”.

B2: human dicalcin: recombinant full-length human dicalcin (S100A11), SEQ ID NO:1 (protein, listed as Homo sapiens)
chain: AKISSPTETERCIESLIAVFQKYAGKDGYNYTLSKTEFLSFMNTELAAFTKNQKDPGVLDRMMKKLDTNSDGQLDFSEFLNLIGGLAMACHDSFLKAVPSQKRT
B2: the invasion index in the test with OVCAR cells [6] (20 μM, normalized to BSA as 100%) was found to be 43.9%. Moreover, the “cell invasion (invasion index)” value with OVCAR cells [6] (8 or 20 μM human dicalcin, versus 20 μM BSA) is reported as “suppresses the cell invasion in a concentration-dependent manner”. Moreover, the cell survival rate result in the test on OVCAR cells [7] is on record as “does not affect the survival of the cells”.
